Assay results reported in patent publication US20180271809A1, “USE OF NICLOSAMIDE IN THE TREATMENT OF P53-DEFICIENT CELLS” (AGENCY FOR SCIENCE, TECHNOLOGY AND RESEARCH, priority 2015, published 2018).

Columns and labels:
HCT116 p53^−/− cells [1] = assay: Co-culture cell viability / competition assay of H2B-GFP HCT116 p53+/+ and H2B-RFP HCT116 p53−/− cells; assay type: cell-based
Experimental: Stably expressing H2B-GFP-HCTp53^+/+ cell (wild type p53 cells) and H2B-RFP-HCTp53^−/− cells (cells lacking p53) were grown in co-culture to screen drug compounds sensitizing either wild type p53 cells or p53-negative cells. Briefly, 200 cells of each
HCT116p53^+/+ and HCT116p53^−/− were plated in a pre-coated 384-well drug plates at final cell density of 400 cells per well at a final volume of 80 μl per well. After plating cells into respective wells, plates were incubated for 6 days. After 6 days of drug incubation, plates were imaged in an Incell Analyzer 200 machine by performing a multi-channel read, that is applying FITC staining to count GFP positive cells and Texas Red staining to count RFP positive cells. After imaging, the raw data was processed through the Incell-Investigator software to count the number of GFP positive and RFP positive cells.
Wildtype HCT116 cells expressing H2B-GFP were co-cultured with HCT115 p53^−/− cells expressing H2B-RFP. […]
2000 cells each of H2B-GFP-HCT116p53^+/+ and H2B-RFP-HCT116p53^−/− were grown as co-culture in 96-well plates in a total volume of 100 ∥l. […] After 6 days of recovery, the cells were imaged in an Incell Analyzer 2000 machine and the percentage of viable cells was determined and plotted against the drug concentrations used in the experiment.

HCT116 p53^−/− cells [2] = assay: Colony forming assay (crystal violet) in isogenic HCT116 cell lines; assay type: cell-based; conditions: 0.5-3 μM, 48 hours of drug treatment, recovery
[3] = test system: Human skin fibroblast cells (TOBA cells); assay: Cell viability (light microscopy) and Annexin V apoptosis assay in p53-depleted human skin fibroblast cells; assay type: cell-based
Experimental: Human skin fibroblast cells (TOBA cells) were infected either with a control shRNA lentivirus or a p53-targeting shRNA virus (as described in the preceding section). After generation of a stable p53-knockdown (using puro selection), cells were analysed for cell viability in response to different doses of niclosamide. Briefly, wild type Toba cells, and p53 depleted cells were plated at 20,000 cell density in 6 well plates. Next day, cells were either DMSO treated or treated with varying doses of niclosamide. After 48 hours of drug incubation, the drug containing media was replaced with new cell culture medium to start recovery. After 8 days of recovery, the cells were imaged in light microscope at 10× objective lens.
As described above, DMSO and niclosamide-treated cells were analysed for the presence of apoptotic cell death by Annexin V staining. All cells in a well, including both rounded floating (that is, dead or dying cells) and adherent cells (that is, live cells) were collected carefully by trypsinisation and centrifuged at 400 g for 5 minutes. The pellet was resuspended in 200 μl of incubation buffer and after re-suspension, centrifuged at same speed as above to collect the washed sample pellets. […]

[4] = test system: p53-deficient HCT116 spheroid; assay: 3D spheroid growth of co-cultured HCT116 p53+/+ and p53−/− cells; assay type: cell-based; conditions: 48 hours drug incubation, 6 more days culture
Experimental: H2B-GFP- HCT116p53^+/+ and H2B-RFP-p53^−/− cells were grown as co-culture in a ultralow attachment 96-well cell culture plates to promote the spheroid formation. Briefly, to generate 3D multicellular spheroids, H2B-GFP expressing wild type (WT) p53 cells and H2B-RFP expressing p53-negative cells were each seeded at 250 cells per 100 ∥l culture media into 96-well round-bottomed plate and spun down (1000 g, 5 min). The seeded cells were cultured for two days in 5% CO2 humidified atmosphere at 37° C. On third day, cells were either DMSO treated or treated with different doses of niclosamide. After 48 hours of drug incubation, spheroids were diluted to non-toxic concentrations via media exchange. Treated spheroids were then further cultured for 6 more days. Spheroids were imaged in Incell analyser 2000 with FITC and Texas-Red channels.

[5] = test system: p53 null and p53 mutant cancer cells; assay: Apoptotic cell death assays in p53 null and p53 mutant cancer cell lines; assay type: cell-based; conditions: data not shown
Experimental: To this end, various cancer cell lines/types were seeded according to their growth rate to be confluent at the same time. These cell lines were each treated with differing niclosamide concentrations for 48 hours. The cells were then allowed to recover in their respective media for 6 days, after which apoptotic cell death assays were performed. The resulting percentage of apoptotic cells in each sample were plotted on a 3D graph (data not shown).

[6] = test system: Mouse embryonic stem cells harbouring a p53K0 mutation; assay: Teratoma growth in nude mice from mouse embryonic stem cells pre-treated with niclosamide; assay type: in vivo; conditions: mES cells treated with 2 μM for 48 hours before injection into nude mice; tumours observed after 24 days / 3 weeks
Experimental: Mouse embryonic stem cells harbouring a p53K0 mutation were either treated with DMSO or treated with niclosamide at a concentration of 2 μM for 48 hours. The resulting trypsinised cells were then resuspended in Phosphate buffer Saline. The cells were counted and resuspended to result in a final cell concentration of 1×10^6 cells/100 μl. Immediately after counting, the cells were transferred to animal facility for nude mice injection. 100 μl of DMSO treated cells were injected into the right inguinal region, while 100 μl niclosamide treated cells were injected into the left inguinal region of each mouse. After 24 days of the injection, tumour growth was observed. The resulting teratomas were surgically removed analysed to observe the ability of niclosamide to inhibit tumour growth. […] Therefore, an in vivo tumour model in nude mice was utilised. As a control, mouse embryonic stem (mES) cells were injected into nude mice and the mice monitored for the presence of tumour growth (teratomas). mES cells treated with niclosamide or DMSO treated control cells were injected into nude mice and tumour growth monitored after 3 weeks.

[7] = test system: ovarian tumour samples derived from patient biopsy samples; assay: Patient-derived ovarian tumour xenograft mouse model; assay type: in vivo; conditions: 150 mg/kg once, intravenously; 30 days post treatment
Experimental: Experiments were also performed using a patient-derived xenograft mouse model. In these experiments, ovarian tumour samples derived from patient biopsy samples were implanted into either the left or right flank of the mouse. These tumours were allowed to establish in the mouse and the tumour volume was measured according to standard practice every 2 days post implantation. After reaching a minimum threshold size of about 200 mm^3, the mice were treated once, intravenously, with niclosamide at a concentration of 150 mg/kg. The change in tumour volume was measured for further 30 days post treatment.

[8] = test system: mouse embryonic fibroblast (MEF) cells harbouring p53 mutations (+/R172 or R172/R172); assay: Niclosamide sensitivity of mouse embryonic fibroblast (MEF) cells with wild type or mutant p53; assay type: cell-based; conditions: p53 +/R172 or R172/R172 versus wild type
Caspase-3 = Caspase-3 immunoblot of niclosamide-treated HCT116 cells; assay type: cell-based; conditions: HCT116 wild type p53 versus p53 deficient
Experimental: Like human fibroblast cells, these cells were also tested for apoptotic cell death, the data of which is shown in the graphs shown in FIG. 4B). […] Both HCT116 cells with wild type p53 and those which were p53 deficient were treated with niclosamide, and protein samples were immunoblotted with Caspase-3 antibody.

O=C(Nc1ccc([N+](=O)[O-])cc1Cl)c1cc(Cl)ccc1O [niclosamide, 2′,5-dichloro-4′-nitrosalicylanilide]
cell viability, HCT116 p53−/− versus HCT116 p53 wildtype (cell viability assay) (HCT116 p53^−/− cells [1]; after 48 hours of drug treatment, compared with DMSO controls): decrease in the viability of HCT116 p53^−/− cells to a greater extent than the HCT116 p53 wildtype cells | selective targeting in chemical biology screen (relative percentages of GFP and RFP cells) (HCT116 p53^−/− cells [1]; co-culture, 48 hours treatment, 7 days recovery in drug free media): selectively targeting HCT116 p53^−/− cells | cell viability, HCT116 p53−/− versus HCT116 p53 wildtype (colony formation assay) (HCT116 p53^−/− cells [2]): decrease in the viability of HCT116 p53^−/− cells to a greater extent than the HCT116 p53 wildtype cells | apoptosis (Annexin V) in p53-deficient versus wildtype human fibroblasts ([3]; 1-4 μM, 48 hours, then recovery, flow cytometry): greater extent of apoptosis in p53-deficient human fibroblasts | sensitivity / killing of p53-deficient human fibroblast cells (FIG. 3 taken together) ([3]; shp53 versus shcontrol cells): preferential killing of p53 deficient cells | 3D spheroid growth, p53-deficient versus wildtype HCT116 [4]: greater reduction of 3D p53-deficient HCT116 spheroid growth compared to wildtype spheroid | susceptibility (apoptotic cells) of p53 null and p53 mutant cancer cells ([5]; 48 hours treatment, 6 days recovery): strongly susceptible to treatment with niclosamide in a dose dependent manner | cell viability of the remaining (surviving) cells ([5]; certain cell lines): differentially reduced cell viability of the remaining cells in certain cell lines | size of the teratomas versus DMSO control [6]: significant reduction in the size of the teratomas | tumour growth (tumour volume) versus PBS control [7]: reduction in tumour growth | niclosamide sensitivity of p53 mutant MEF cells (bright field, crystal violet) [8]: p53 mutant MEF cells are sensitive to niclosamide | induction of cleaved caspase in p53 deficient HCT116 cells (western blot) (Caspase-3): clear induction of the cleaved caspase in p53 minus
